Laboratory results published in patent US5166066A (priority 1991, dated 1992).

How the values were obtained:
[1] = biological target: T1, GABAA receptor-Cl- channel complex composed of rat α1, β2, γ2 subunits (Rattus norvegicus, UniProt P18508+P62813+P63138); test: whole-cell patch clamp of GABA-mediated Cl- currents in transfected HEK 293 cells; type: cell-based; conditions: cell line 2C-1C, HEK 293, holding potential -60 mV
T1 construct: expressed in transfected cells
Description: GABAA receptors are gated channels which, upon binding to BAGA, allow chlorine ions to pass into the cell. In the presence of benzodiazepines. The GABAA receptor will allow GABA to open the channel and let more chlorine ion into the cell if the benzodiazepine is an agonist or less chlorine ions into the cell if the benzodiazepine is an inverse agonist. The amount of chlorine ions that pass through the GABAA receptor can be directly measured using the patch clamp assay. This assay measures the charge flow into and out of an electrode sealed on the surface of a cell. The flow of chlorine ions entering the cell is measured as a function of the current that leaves the cell to maintain electrical equilibrium within the cell as the gate opens. […] The range of sensitivity of the whole cell patch clamp assay is about 1000 pA and allows for the distinguishing of currents of between 2 and 5 pA.
These tests were carried out by patch-clamp electrophysiology of whole cells. The whole-cell configuration of patch clamp technique was used to record the GABA-mediated Cl-currents in human embryonic kidney cells transfected with GABAA receptor subunits. Patch pipettes were made of borosilicate glass with a resistance of 0.5 to 2 megohms. The cell was bathed in the buffer medium containing (mM) NaCl 135, KCl 5, MgCl2 1, CaCl2 1.8 and Hepes 5, pH 7.2. […]

[2] = test system: recombinant receptors composed of α6 -, β2 - and β2-subunits; conditions: transiently expressed in cultured mammalian cells; cited from earlier work
[3] = test system: α1 - and β1 -subunits of the bovine brain GABAA receptor; conditions: CHO cells, dexamethasone-inducible promoter; cited from earlier work

T1 sequence (P62813 28-455): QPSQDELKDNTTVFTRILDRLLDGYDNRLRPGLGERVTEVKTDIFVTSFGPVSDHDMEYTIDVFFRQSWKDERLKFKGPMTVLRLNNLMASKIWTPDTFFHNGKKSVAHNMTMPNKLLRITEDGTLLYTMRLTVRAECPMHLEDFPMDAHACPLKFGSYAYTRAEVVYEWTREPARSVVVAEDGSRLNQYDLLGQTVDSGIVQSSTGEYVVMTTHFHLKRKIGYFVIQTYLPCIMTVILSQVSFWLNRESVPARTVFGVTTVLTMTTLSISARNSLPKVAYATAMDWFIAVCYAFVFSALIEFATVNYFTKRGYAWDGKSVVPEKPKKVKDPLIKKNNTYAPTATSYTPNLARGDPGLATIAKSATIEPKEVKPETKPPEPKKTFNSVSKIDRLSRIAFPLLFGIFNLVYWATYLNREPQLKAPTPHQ
T1 sequence (P63138 26-474): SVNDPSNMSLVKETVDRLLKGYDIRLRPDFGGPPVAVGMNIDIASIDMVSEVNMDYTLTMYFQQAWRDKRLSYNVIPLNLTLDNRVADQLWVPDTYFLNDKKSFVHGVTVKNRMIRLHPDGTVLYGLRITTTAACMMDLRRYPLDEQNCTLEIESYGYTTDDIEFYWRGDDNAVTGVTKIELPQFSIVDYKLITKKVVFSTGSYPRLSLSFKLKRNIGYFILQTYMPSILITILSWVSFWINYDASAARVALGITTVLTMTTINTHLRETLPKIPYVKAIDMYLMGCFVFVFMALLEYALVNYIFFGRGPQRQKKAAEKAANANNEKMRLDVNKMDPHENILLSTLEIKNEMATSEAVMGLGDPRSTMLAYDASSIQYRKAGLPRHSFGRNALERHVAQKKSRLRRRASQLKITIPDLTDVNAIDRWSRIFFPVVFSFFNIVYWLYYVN
T1 sequence (P18508 39-466): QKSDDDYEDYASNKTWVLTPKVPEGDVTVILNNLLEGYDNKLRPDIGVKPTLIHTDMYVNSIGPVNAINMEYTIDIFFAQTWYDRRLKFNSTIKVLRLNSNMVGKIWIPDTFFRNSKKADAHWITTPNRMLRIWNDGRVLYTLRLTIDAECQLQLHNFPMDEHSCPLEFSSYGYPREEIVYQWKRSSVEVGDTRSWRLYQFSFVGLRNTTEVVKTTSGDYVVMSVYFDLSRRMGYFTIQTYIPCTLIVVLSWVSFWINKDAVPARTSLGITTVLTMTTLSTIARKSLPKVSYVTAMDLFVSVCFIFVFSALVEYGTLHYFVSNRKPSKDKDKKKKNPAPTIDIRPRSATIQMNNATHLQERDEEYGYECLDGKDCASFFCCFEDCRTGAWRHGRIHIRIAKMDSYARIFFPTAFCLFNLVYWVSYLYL

| Compound | binding affinity to recombinant receptors [2] | effect on current response of α1β1 GABAA receptors [3] | other results |
| --- | --- | --- | --- |
| NCCCC(=O)O [GABA, γ-Aminobutyric acid] | – | – | response of cells to drug (Cl- current) [1]: responsive |
| CCOC(=O)c1ncn2c1CN(C)C(=O)c1cc(F)ccc1-2 [Ro15-1788] | high affinity | – | – |
| CCOC(=O)c1ncn2c1CN(C)C(=O)c1cc(N=[N+]=[N-])ccc1-2 [Ro15-4513] | high affinity | – | – |
| CN1CCc2cc3c(cc2[C@H]1[C@@H]1OC(=O)c2c1ccc1c2OCO1)OCO3 [bicuculline] | – | reversibly blocked | – |
| NCc1cc(=O)[nH]o1 [muscimol] | high affinity | – | – |
| picrotoxin | – | reversibly blocked | – |
